Laboratory results published in patent publication US20260240842A1, “METHODS TO PREVENT THERAPY RESISTANCE IN MELANOMA VIA BLOCKING GENOMIC INSTABILITY” (THE REGENTS OF THE UNIVERSITY OF CALIFORNIA, priority 2022, published 2026).

Tested on: KRAS^G12C NSCLC cell lines (H358, H2122)
Assay: Long-term clonogenic growth, acquired MAPKi resistance in NSCLC cell lines
Format: cell-based, human
Details: combined with MAPKi; FIG. 6G to 6J
Excerpt: FIGS. 6A-6J. DNA-PKi co-treatment prevents acquired MAPKi-resistance in KRAS^G12 human pancreatic ductal adenocarcinoma and non-small cell lung carcinoma cell lines. FIGS. 6A to 6J: Long-term clonogenic growth of PDAC (MIAPaCa-2, XWR200) (6A to 6F) or NSCLC (H358, H2122) (6G to 6J) cell lines showing acquired-resistant colonies to MEKi alone, type II RAFi+MEKi, or KRAS G12Ci+MEKi and their suppression by indicated co-treatments with DNA-PKi (NU7026) and/or PARPi (ABT888) at indicated concentrations. Top, representative cultures; bottom, quantifications over n=4 fields (mean±SD). Data representative of 2 independent repeats. Seeding densities (cells/well in 6-well dishes) and culture durations: MIAPaCa-2 (10,000; 30 days for 6A-6C), XWR200 (150,000; 23 days for 6D, 30 days for 6E, 26 days for 6F), H358 (40,000; 14 days for 6G, 29 days for 6H, 26 days for 6I), H2122 (20,000, 22 days for 6J). […]
For clonogenic assay, cells were plated at indicated cell densities in six-well plates and treated with inhibitor(s) the next day. […] Formazan was then dissolved in 100 μL DMSO, and the absorbance values were measured using an ELISA reader (SpectraMax Plus 384) at the wavelength of 570 nm, blanked with DMSO solution. […]

SMILES | suppression of acquired MAPKi resistance, number of NSCLC cell lines
C[C@]1(c2nc3c(C(N)=O)cccc3[nH]2)CCCN1 [ABT888, veliparib] | generally ineffective
O=c1cc(N2CCOCC2)oc2c1ccc1ccccc12 [NU7026] | one of two
